Laboratory results reported in ChEMBL document CHEMBL3608225, “Harpagoside Inhibits RANKL-Induced Osteoclastogenesis via Syk-Btk-PLCγ2-Ca(2+) Signaling Pathway and Prevents Inflammation-Mediated Bone Loss” (J Nat Prod, 2015).
Active and inactive are the calls of the source. No cut-off for these calls is given here.

Experiments:
[1] = target: T1, Tumor necrosis factor ligand superfamily member 11 (Mus musculus) (UniProt O35235); experiment: Inhibition of RANKL-mediated osteoclast differentiation in mouse BMMC assessed as formation of TRAP-positive osteoclasts after 4 days; assay type: functional
T1 sequence (whole entry): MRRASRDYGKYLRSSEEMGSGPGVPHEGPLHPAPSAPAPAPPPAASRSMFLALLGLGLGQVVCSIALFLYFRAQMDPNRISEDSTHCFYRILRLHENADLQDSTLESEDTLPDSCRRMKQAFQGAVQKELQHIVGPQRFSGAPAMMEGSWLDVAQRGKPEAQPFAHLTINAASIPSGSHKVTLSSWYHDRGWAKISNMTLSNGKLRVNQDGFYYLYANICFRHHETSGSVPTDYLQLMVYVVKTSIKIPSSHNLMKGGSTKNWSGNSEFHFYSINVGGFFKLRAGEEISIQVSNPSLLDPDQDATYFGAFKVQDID

[2] = Cytotoxicity against mouse BMMC assessed as cell viability after 3 days by XTT assay; conditions: 72 h
[3] = target: T1, Tumor necrosis factor ligand superfamily member 11 (Mus musculus); experiment: Inhibition of RANKL-mediated osteoclast differentiation in mouse BMMC assessed as disruption of F-actin ring formation after 3 days using phalloidin and DAPI staining; assay type: functional
[4] = tested on: Osteoclast; experiment: Inhibition of bone resorption in mouse mature osteoclasts after 24 hrs by light microscopic analysis; assay type: functional, cell-based
[5] = target: T1, Tumor necrosis factor ligand superfamily member 11 (Mus musculus); experiment: Inhibition of RANKL-mediated osteoclastogenesis in mouse BMMC assessed as reduction of c-Fos protein expression at 100 uM after 12 to 48 hrs by Western blot analysis; assay type: functional
[6] = target: T1, Tumor necrosis factor ligand superfamily member 11 (Mus musculus); experiment: Inhibition of RANKL-mediated osteoclastogenesis in mouse BMMC assessed as reduction of NFATc1 protein expression at 100 uM after 12 to 48 hrs by Western blot analysis; assay type: functional
[7] = target: T1, Tumor necrosis factor ligand superfamily member 11 (Mus musculus); experiment: Inhibition of RANKL-mediated osteoclastogenesis in mouse BMMC assessed as reduction of c-Fos mRNA expression at 100 uM after 12 to 48 hrs by RT-PCR analysis; assay type: functional
[8] = target: T1, Tumor necrosis factor ligand superfamily member 11 (Mus musculus); experiment: Inhibition of RANKL-mediated osteoclastogenesis in mouse BMMC assessed as reduction of NFATc1 mRNA expression at 100 uM after 12 to 48 hrs by RT-PCR analysis; assay type: functional
[9] = target: T1, Tumor necrosis factor ligand superfamily member 11 (Mus musculus); experiment: Inhibition of RANKL-mediated osteoclastogenesis in mouse BMMC assessed as reduction of TRAP mRNA expression at 100 uM after 12 to 48 hrs by RT-PCR analysis; assay type: functional
[10] = target: T1, Tumor necrosis factor ligand superfamily member 11 (Mus musculus); experiment: Inhibition of RANKL-mediated osteoclastogenesis in mouse BMMC assessed as reduction of OSCAR mRNA expression at 100 uM after 12 to 48 hrs by RT-PCR analysis; assay type: functional
[11] = target: T1, Tumor necrosis factor ligand superfamily member 11 (Mus musculus); experiment: Inhibition of RANKL-mediated osteoclastogenesis in mouse BMMC assessed as reduction of beta3-integrin mRNA expression at 100 uM after 12 to 48 hrs by RT-PCR analysis; assay type: functional
[12] = target: T1, Tumor necrosis factor ligand superfamily member 11 (Mus musculus); experiment: Inhibition of RANKL-mediated osteoclastogenesis in mouse BMMC assessed as reduction of DC-STAMP mRNA expression at 100 uM after 12 to 48 hrs by RT-PCR analysis; assay type: functional
[13] = target: T1, Tumor necrosis factor ligand superfamily member 11 (Mus musculus); experiment: Inhibition of RANKL-mediated osteoclastogenesis in mouse BMMC assessed as reduction of CTR mRNA expression at 100 uM after 12 to 48 hrs by RT-PCR analysis; assay type: functional
[14] = target: T1, Tumor necrosis factor ligand superfamily member 11 (Mus musculus); experiment: Inhibition of RANKL-mediated osteoclastogenesis in mouse BMMC assessed as reduction of cathepsin K mRNA expression at 100 uM after 12 to 48 hrs by RT-PCR analysis; assay type: functional
[15] = target: T1, Tumor necrosis factor ligand superfamily member 11 (Mus musculus); experiment: Inhibition of RANKL-mediated ERK phosphorylation in mouse BMMC at 100 uM after 1 hr by Western blot analysis
[16] = target: T1, Tumor necrosis factor ligand superfamily member 11 (Mus musculus); experiment: Inhibition of RANKL-mediated JNK phosphorylation in mouse BMMC at 100 uM after 1 hr by Western blot analysis
[17] = target: Tyrosine-protein kinase SYK (Mus musculus) (UniProt P48025); experiment: Inhibition of RANKL-mediated Syk phosphorylation in mouse BMMC at 100 uM after 1 hr by Western blot analysis
[18] = target: Tyrosine-protein kinase BTK (Mus musculus) (UniProt P35991); experiment: Inhibition of RANKL-mediated Btk phosphorylation in mouse BMMC at 100 uM after 1 hr by Western blot analysis
[19] = target: T2, 1-phosphatidylinositol 4,5-bisphosphate phosphodiesterase gamma-2 (Mus musculus) (UniProt Q8CIH5); experiment: Inhibition of RANKL-mediated PLCgamma2 phosphorylation in mouse BMMC at 100 uM after 1 hr by Western blot analysis
T2 sequence (whole entry): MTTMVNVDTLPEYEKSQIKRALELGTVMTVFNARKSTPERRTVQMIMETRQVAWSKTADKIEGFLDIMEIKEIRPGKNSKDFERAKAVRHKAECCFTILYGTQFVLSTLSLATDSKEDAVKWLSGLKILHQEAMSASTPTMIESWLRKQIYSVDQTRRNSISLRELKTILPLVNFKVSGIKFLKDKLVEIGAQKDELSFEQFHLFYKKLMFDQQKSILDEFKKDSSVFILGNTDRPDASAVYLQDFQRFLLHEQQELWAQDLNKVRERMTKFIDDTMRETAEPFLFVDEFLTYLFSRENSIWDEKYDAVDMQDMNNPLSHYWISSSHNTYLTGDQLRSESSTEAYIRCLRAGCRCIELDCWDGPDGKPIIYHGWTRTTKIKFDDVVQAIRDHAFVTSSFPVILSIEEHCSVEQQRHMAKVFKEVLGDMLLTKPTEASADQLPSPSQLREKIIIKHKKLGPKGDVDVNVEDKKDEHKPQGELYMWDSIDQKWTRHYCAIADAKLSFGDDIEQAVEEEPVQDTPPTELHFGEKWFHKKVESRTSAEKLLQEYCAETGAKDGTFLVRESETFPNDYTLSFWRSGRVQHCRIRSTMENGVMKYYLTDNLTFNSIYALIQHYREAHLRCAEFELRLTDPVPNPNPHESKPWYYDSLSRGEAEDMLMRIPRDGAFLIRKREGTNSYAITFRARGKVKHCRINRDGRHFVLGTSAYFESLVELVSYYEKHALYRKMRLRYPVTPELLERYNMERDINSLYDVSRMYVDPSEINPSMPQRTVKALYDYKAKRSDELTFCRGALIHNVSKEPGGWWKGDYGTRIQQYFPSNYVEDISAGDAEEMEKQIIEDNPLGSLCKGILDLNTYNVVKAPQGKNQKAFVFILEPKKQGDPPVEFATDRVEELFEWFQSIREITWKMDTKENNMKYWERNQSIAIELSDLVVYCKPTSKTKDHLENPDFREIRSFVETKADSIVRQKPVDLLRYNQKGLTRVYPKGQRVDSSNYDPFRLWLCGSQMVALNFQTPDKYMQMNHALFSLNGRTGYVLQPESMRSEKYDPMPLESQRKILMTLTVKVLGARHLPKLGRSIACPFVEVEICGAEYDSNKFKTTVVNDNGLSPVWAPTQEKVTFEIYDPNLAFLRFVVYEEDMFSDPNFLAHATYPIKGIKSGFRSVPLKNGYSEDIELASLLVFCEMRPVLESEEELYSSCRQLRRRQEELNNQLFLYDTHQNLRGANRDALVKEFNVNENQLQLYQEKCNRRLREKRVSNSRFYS

[20] = target: T1, Tumor necrosis factor ligand superfamily member 11 (Mus musculus); experiment: Inhibition of RANKL-mediated osteoclastogenesis in mouse BMMC assessed as reduction of amplitude and frequency of Ca2+ oscillations at 100 uM after 24 hrs by Fura-2/AM fluorescence assay; assay type: functional
[21] = tested on: Mus musculus; experiment: Inhibition of LPS-induced bone loss in ICR mouse assessed as prevention of loss in trabecular bone in femurs at 10 mg/kg, po after 10 days by micro-CT analysis; assay type: functional, organism-based; conditions: Trabecula
[22] = tested on: Mus musculus; experiment: Inhibition of LPS-induced bone loss in ICR mouse assessed as restoration of BV/TV in femurs at 10 mg/kg, po after 10 days by morphometric analysis; assay type: functional, organism-based
[23] = tested on: Mus musculus; experiment: Inhibition of LPS-induced bone loss in ICR mouse assessed as restoration of Tb.Sp in femurs at 10 mg/kg, po after 10 days by morphometric analysis; assay type: functional, organism-based
[24] = tested on: Mus musculus; experiment: Inhibition of LPS-induced bone loss in ICR mouse assessed as restoration of Tb.N in femurs at 10 mg/kg, po after 10 days by morphometric analysis; assay type: functional, organism-based
[25] = tested on: Mus musculus; experiment: Inhibition of LPS-induced bone loss in ICR mouse assessed as restoration of Tb.Th in femurs at 10 mg/kg, po after 10 days by morphometric analysis; assay type: functional, organism-based
[26] = tested on: Mus musculus; experiment: Inhibition of LPS-induced bone loss in ICR mouse assessed as reduction of RANKL/OPG ratio in serum level at 10 mg/kg, po after 10 days by ELISA; assay type: functional, organism-based
[27] = tested on: Mus musculus; experiment: Inhibition of LPS-induced bone loss in ICR mouse assessed as restoration of osteoclast formation in femurs at 10 mg/kg, po after 10 days by hematoxylin and eosin staining; assay type: functional, organism-based
[28] = tested on: Mus musculus; experiment: Inhibition of LPS-induced bone loss in ICR mouse assessed as restoration of bone loss in femurs at 10 mg/kg, po after 10 days by hematoxylin and eosin staining; assay type: functional, organism-based
[29] = tested on: Mus musculus; experiment: Inhibition of LPS-induced bone loss in ICR mouse assessed as restoration of number of osteoclasts in femurs at 10 mg/kg, po after 10 days; assay type: functional, organism-based
[30] = tested on: Mus musculus; experiment: Inhibition of LPS-induced bone loss in ICR mouse assessed as reduction of CTX-I in serum at 10 mg/kg, po after 10 days by ELISA; assay type: functional, organism-based
[31] = tested on: Mus musculus; experiment: Inhibition of ovariectomized-induced bone loss in C57BL/6 mouse assessed as reduction of loss of bone mineral density at 10 mg/kg, po administered every other day for 28 days by micro-CT analysis; assay type: functional, organism-based
[32] = tested on: Mus musculus; experiment: Inhibition of ovariectomized-induced bone loss in C57BL/6 mouse assessed as restoration of BV/TV in femurs at 10 mg/kg, po administered every other day for 28 days by morphometric analysis; assay type: functional, organism-based
[33] = tested on: Mus musculus; experiment: Inhibition of ovariectomized-induced bone loss in C57BL/6 mouse assessed as restoration of Tb.Sp in femurs at 10 mg/kg, po administered every other day for 28 days by morphometric analysis; assay type: functional, organism-based
[34] = tested on: Mus musculus; experiment: Inhibition of ovariectomized-induced bone loss in C57BL/6 mouse assessed as restoration of Tb.N in femurs at 10 mg/kg, po administered every other day for 28 days by morphometric analysis; assay type: functional, organism-based
[35] = tested on: Mus musculus; experiment: Inhibition of ovariectomized-induced bone loss in C57BL/6 mouse assessed as restoration of osteoclast formation in femurs at 10 mg/kg, po administered every other day for 28 days by hematoxylin and eosin staining; assay type: functional, organism-based
[36] = tested on: Mus musculus; experiment: Inhibition of ovariectomized-induced bone loss in C57BL/6 mouse assessed as restoration of bone loss in femurs at 10 mg/kg, po administered every other day for 28 days by hematoxylin and eosin staining; assay type: functional, organism-based
[37] = tested on: Mus musculus; experiment: Inhibition of ovariectomized-induced bone loss in C57BL/6 mouse assessed as restoration number of osteoclasts in femurs at 10 mg/kg, po administered every other day for 28 days; assay type: functional, organism-based
[38] = tested on: Mus musculus; experiment: Inhibition of ovariectomized-induced bone loss in C57BL/6 mouse assessed as CTX-I level in serum at 10 mg/kg, po administered every other day for 28 days by ELISA; assay type: functional, organism-based

Sequence of Tyrosine-protein kinase BTK (Mus musculus) (P35991 whole entry): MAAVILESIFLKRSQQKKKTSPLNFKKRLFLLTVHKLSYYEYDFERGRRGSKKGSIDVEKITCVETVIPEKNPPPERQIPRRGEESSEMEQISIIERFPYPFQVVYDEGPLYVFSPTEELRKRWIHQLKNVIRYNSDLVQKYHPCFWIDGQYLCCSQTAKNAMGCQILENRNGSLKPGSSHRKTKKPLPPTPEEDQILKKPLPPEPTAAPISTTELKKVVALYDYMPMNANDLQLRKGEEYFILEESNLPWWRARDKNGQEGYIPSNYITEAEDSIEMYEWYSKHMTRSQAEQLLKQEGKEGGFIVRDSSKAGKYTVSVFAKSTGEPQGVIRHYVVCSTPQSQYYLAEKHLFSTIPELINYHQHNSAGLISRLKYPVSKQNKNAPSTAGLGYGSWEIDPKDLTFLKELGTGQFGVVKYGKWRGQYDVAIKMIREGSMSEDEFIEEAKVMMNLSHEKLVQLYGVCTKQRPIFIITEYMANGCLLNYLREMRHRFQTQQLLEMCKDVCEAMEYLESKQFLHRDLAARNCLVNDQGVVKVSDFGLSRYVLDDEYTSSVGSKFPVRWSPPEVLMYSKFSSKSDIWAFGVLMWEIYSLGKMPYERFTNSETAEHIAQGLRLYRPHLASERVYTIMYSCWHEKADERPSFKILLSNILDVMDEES
Sequence of Tyrosine-protein kinase SYK (Mus musculus) (P48025 whole entry, looked up): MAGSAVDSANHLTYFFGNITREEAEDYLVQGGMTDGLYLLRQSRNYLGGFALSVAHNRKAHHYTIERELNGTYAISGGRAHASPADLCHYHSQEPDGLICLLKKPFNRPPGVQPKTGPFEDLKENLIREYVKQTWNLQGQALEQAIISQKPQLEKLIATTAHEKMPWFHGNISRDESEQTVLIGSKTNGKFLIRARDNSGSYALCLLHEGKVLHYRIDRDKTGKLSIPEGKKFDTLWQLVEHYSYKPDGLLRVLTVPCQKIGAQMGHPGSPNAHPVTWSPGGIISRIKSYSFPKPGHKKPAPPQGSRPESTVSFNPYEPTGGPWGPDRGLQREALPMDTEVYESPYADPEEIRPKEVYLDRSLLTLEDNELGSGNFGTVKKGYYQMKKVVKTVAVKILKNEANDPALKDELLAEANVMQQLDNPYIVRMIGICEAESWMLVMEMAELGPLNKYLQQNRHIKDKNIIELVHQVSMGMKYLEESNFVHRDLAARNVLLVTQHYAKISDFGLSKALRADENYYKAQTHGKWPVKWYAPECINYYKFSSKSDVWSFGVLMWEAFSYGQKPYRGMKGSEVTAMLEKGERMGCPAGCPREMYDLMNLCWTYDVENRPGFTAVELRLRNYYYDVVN

In the case of `C[C@]1(OC(=O)/C=C/c2ccccc2)C[C@@H](O)[C@]2(O)C=CO[C@@H](O[C@@H]3O[C@H](CO)[C@@H](O)[C@H](O)[C@H]3O)[C@@H]21` [HARPAGOSIDE], the inhibition [1] is reported as “Dose-dependent effect”, the Activity [2] is reported as “Non-toxic” and the inhibition [3] is reported as “Dose-dependent effect”. The inhibition [4] was “Dose-dependent effect”, the inhibition [5] was “Active” and the inhibition [6] was “Active”. For the same compound, the inhibition [7] was “Active”, the inhibition [8] was “Active” and the inhibition [9] was “Active”. For the same compound, the inhibition [10] was “Active”, the inhibition [11] was “Active” and the inhibition [12] was “Active”. The inhibition [13] was “Active”, the inhibition [14] was “Active” and the inhibition [15] was “Active”. For the same compound, the inhibition [16] was “Active”, the inhibition [17] was “Active” and the inhibition [18] was “Active”. For the same compound, the inhibition [19] was “Active”, the inhibition [20] was “Active” and the inhibition [21] was “Active”. For the same compound, the inhibition [22] was “Active”, the inhibition [23] was “Active” and the inhibition [24] was “Active”. For the same compound, the inhibition [25] was “inactive”, the inhibition [26] was “Active” and the inhibition [27] was “Active”. The inhibition [28] was “Active”, the inhibition [29] was “Active” and the inhibition [30] was “Active”. For the same compound, the inhibition [31] was “inactive”, the inhibition [32] was “inactive” and the inhibition [33] was “inactive”. The inhibition [34] was “inactive”, the inhibition [35] was “inactive” and the inhibition [36] was “inactive”. For the same compound, the inhibition [37] was “inactive” and the inhibition [38] was “inactive”.
